Measurements as given in ChEMBL document CHEMBL1136613, “2-(3,4-Dihydro-1H-isoquinolin-2yl)-pyridines as a novel class of NR1/2B subtype selective NMDA receptor antagonists” (Bioorg Med Chem Lett, 2003).
Several values for one entry are separate records, joined by “and”; a condition that tells them apart may be missing. Identical values can stand only once.

Key:
[1] = target: Glutamate [NMDA] receptor
Description: Binding affinity against NMDA receptor by displacement of [3H]Ro-256981

Mus musculus [2] = test: In vivo activity was measured i mice after ip administration using standard sound-induced seizures assay; format: functional
[3] = target: T1, Adrenergic receptor alpha-1 (Homo sapiens, UniProt P35348+P25100+P35368); test: Displacement of [3H]prazosin from Alpha-1 adrenergic receptor; format: protein assay
T1 sequence (P35348 whole entry): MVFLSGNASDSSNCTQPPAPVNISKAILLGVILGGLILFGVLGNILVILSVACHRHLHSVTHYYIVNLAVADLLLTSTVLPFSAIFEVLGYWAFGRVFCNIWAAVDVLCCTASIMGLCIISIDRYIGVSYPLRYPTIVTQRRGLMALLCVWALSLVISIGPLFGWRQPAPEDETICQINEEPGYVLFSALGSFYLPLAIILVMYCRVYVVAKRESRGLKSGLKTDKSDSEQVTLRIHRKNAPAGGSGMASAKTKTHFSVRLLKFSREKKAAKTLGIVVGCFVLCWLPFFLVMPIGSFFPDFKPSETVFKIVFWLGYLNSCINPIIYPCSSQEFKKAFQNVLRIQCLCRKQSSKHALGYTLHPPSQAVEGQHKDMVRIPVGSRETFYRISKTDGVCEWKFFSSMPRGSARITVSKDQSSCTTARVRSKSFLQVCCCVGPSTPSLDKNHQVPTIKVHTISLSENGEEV
T1 sequence (P25100 whole entry): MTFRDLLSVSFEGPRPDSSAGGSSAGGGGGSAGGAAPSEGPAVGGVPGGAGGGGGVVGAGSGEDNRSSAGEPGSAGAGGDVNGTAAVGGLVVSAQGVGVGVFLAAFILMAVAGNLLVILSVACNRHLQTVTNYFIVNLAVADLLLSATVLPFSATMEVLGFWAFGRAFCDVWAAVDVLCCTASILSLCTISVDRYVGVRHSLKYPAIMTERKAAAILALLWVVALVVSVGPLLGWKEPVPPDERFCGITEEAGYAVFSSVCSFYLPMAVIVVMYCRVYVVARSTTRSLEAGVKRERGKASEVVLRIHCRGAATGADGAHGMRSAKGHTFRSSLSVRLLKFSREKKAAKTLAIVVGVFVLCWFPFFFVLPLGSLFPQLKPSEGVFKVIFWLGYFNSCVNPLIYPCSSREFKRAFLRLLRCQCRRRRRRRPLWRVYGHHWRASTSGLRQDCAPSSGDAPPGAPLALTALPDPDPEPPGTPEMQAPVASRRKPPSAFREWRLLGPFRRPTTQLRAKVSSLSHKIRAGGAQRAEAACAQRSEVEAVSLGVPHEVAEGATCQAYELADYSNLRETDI
T1 sequence (P35368 whole entry): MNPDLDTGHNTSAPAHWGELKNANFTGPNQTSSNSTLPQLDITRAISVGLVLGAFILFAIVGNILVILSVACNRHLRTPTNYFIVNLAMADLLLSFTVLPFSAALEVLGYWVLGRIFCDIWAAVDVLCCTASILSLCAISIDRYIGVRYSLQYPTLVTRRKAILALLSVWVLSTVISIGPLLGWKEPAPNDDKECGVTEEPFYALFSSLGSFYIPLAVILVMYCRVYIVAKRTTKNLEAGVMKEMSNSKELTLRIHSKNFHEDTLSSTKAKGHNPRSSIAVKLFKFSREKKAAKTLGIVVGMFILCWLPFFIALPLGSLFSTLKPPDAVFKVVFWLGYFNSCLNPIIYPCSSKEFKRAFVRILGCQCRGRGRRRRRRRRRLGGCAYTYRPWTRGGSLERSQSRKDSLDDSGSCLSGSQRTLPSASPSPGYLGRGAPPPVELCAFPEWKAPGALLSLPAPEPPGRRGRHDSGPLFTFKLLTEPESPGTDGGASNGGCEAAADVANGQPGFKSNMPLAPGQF

[4] = target: T2, Muscarinic acetylcholine receptor M1 (Homo sapiens, UniProt P11229)
T2 sequence (P11229 whole entry): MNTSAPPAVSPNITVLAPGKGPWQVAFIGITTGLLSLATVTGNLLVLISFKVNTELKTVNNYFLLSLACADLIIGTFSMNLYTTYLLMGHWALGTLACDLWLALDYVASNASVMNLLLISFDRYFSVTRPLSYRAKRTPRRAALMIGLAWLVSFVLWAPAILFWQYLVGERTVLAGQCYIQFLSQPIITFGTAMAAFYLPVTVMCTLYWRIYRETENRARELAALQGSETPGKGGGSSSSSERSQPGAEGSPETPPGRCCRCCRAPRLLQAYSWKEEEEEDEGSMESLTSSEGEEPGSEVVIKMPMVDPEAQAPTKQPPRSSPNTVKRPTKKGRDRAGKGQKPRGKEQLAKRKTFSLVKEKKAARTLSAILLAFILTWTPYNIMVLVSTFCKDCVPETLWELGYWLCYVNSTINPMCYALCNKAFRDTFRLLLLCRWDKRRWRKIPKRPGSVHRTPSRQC
Description: Displacement of [3H]pirenzepine from M1 receptor

Mus musculus [5] = test: In vivo activity was measured in mice after ip administration using standard sound-induced seizures assay; format: functional

Description for physchem: Dissociation constant (pKa)

Row | Ki [1] | pKa (physchem) | Ki [3] [nM] | Ki [4] [nM] | SMILES | ED50 (Mus musculus [2]) [mg/kg] | ED50 (Mus musculus [5]) [mg/kg]
1 | 7500 nM | 3 |  |  | Brc1ccc(N2CCc3ccccc3C2)nc1 |  | 
2 | 3.5 nM |  |  |  | OCCNc1cc(N2CCc3ccccc3C2)nc2ccccc12 | < 12 | 
3 | 190 nM | 6 |  |  | Nc1cccc(N2CCc3ccccc3C2)n1 |  | 
4 | 4 nM | 9.2 | 3300 | 3800 | Cc1cc(NCCO)cc(N2CCc3ccccc3C2)n1 |  | 
5 | 110 nM | 6.5 |  |  | Cc1cc(N)nc(N2CCc3ccccc3C2)c1 |  | 
6 | 3 nM | 8.5 | 1200 | 1900 | Nc1ccnc(N2CCc3ccccc3C2)c1 |  | 7
7 | 15000 nM | 2 |  |  | Brc1cccc(N2CCc3ccccc3C2)n1 |  | 
8 | 8 nM and 19 nM | 8.8 |  | 1200 | CNc1ccnc(N2CCc3ccccc3C2)c1 |  | 
9 | 750 nM | 6.4 |  |  | c1ccc(N2CCc3ccccc3C2)nc1 |  | 
10 | 380 nM | 5 |  |  | Nc1cccnc1N1CCc2ccccc2C1 |  | 
11 | 6 nM |  |  |  | C[C@@H](CN1CCC(Cc2ccccc2)CC1)[C@@H](O)c1ccc(O)cc1 (single isomer, unassigned) |  | 13
12 | 4 nM | 8.7 | 1000 | 870 | Cc1cnc(N2CCc3ccccc3C2)cc1N |  | 
13 | 9 nM | 9.4 | 730 | 510 | Nc1cc(N2CCc3ccccc3C2)nc2c1CCC2 |  | 
14 | 380 nM | 6.5 |  |  | CC(=O)Nc1ccnc(N2CCc3ccccc3C2)c1 |  | 
15 | 2 nM | 8.9 | 2300 | 6100 | OCCNc1ccnc(N2CCc3ccccc3C2)c1 |  | 13
16 | 8 nM | 9 | 3200 | 6500 | Cc1cnc(N2CCc3ccccc3C2)cc1NCCO |  | 
17 | 8 nM | 8.8 | 490 | 150 | CN(C)c1ccnc(N2CCc3ccccc3C2)c1 |  | 
18 | 150 nM | 8.6 |  |  | c1ccc(CNc2ccnc(N3CCc4ccccc4C3)c2)cc1 |  | 
19 |  | 6.5 |  |  | Cc1ccc(N2CCc3ccccc3C2)nc1 |  | 
20 | 1100 nM | 5.8 |  |  | Nc1ccc(N2CCc3ccccc3C2)nc1 |  | 
21 | 4 nM | 8.1 | 1700 | 1100 | Nc1cc(CO)nc(N2CCc3ccccc3C2)c1 |  | 
22 | 380 nM | 6.6 |  |  | Cc1ccnc(N2CCc3ccccc3C2)c1 |  | 
23 | 5 nM | 9 | 730 | 2600 | Cc1cc(N)cc(N2CCc3ccccc3C2)n1 |  | 
24 | 260 nM | 6.5 |  |  | CCOC(=O)C(=O)Nc1cc(C)nc(N2CCc3ccccc3C2)c1 |  | 
25 | 3 nM | 9 | 670 | 2500 | CCc1cc(N)cc(N2CCc3ccccc3C2)n1 |  | 
26 |  |  |  |  | C[C@@H]([C@@H](O)c1ccc(O)cc1)N1CCC(O)(c2ccccc2)CC1 [TRAXOPRODIL] |  | 13
